Measurements: ChEMBL document CHEMBL6078620, “Design and synthesis of visible light-activatable photocaged peroxides for optical control of ROS-mediated cellular signaling” (Bioorg Med Chem, 2024)
Activity calls are given as the source filed them. The rule behind the calls is not given here.

What was measured:
HeLa [1] = test: Cytotoxicity against human HeLa cells at 25 uM by CCK-8 assay; assay type: functional, cell-based
[2] = Chemical stability of compound in PBS buffer at pH 7.4 assessed as parent compound remaining measured after 60 mins by UHPLC analysis; assay type: physicochemical; details: read-out: Stability
HeLa [3] = test: Cytotoxicity against human HeLa cells assessed as reduction in cell survival upto 50 uM by CCK-8 assay; assay type: functional; details: up to 50 µM
HeLa [4] = test: Cytotoxicity against human HeLa cells assessed as TBHP release by measuring fluorescence intensity at 10 uM incubated for 5 mins in presence of light irradiation at 375 to 455 nm by confocal fluorescence microscopic analysis; assay type: functional, cell-based
HeLa [5] = test: Cytotoxicity against human HeLa cells assessed as reduction in cell survival upto 50 uM in presence of light irradiation by CCK-8 assay; assay type: functional; details: up to 50 µM
[6] = Photophysical property of the compound assessed as fluorescence quantum yield by UV-Visible spectrophotometric analysis; assay type: physicochemical
HeLa [7] = test: Cytotoxicity against human HeLa cells assessed as TBHP release by measuring fluorescence intensity at 50 uM incubated for 5 mins in presence of light irradiation at 375 nm by confocal fluorescence microscopic analysis; assay type: functional, cell-based

Row | Compound | Activity (HeLa [1]) | remaining at 1 h [2] [%] | Activity (HeLa [3]) [%] | Activity (HeLa [4]) | Activity (HeLa [5]) [%] | Activity [6] | Activity (HeLa [7])
1 | CC(C)(C)OOC(=O)OCc1cc(=O)oc2c3c(c(Br)cc12)NCCC3 | Active | 50 | 63 | Active | 46 | 0.082 | –
2 | CC(=O)OC(=O)OCc1cc(=O)oc2cc(O)c(Br)cc12 | – | – | – | – | – | 0.04 | –
3 | CC(C)(C)OOC(=O)OCc1cc(=O)oc2cc(O)c(Br)cc12 | – | 45 | – | – | – | 0.13 | Active
4 | CC(C)(C)OOC(=O)OCc1cc(=O)oc2c3c(c(Br)cc12)NCC3 | – | 68 | – | – | – | 0.14 | –
